Patent US20060134001A1, “Conjugated infrared fluorescent substances for detection of cell death” (priority 2002, published 2006)
Values belong to the compound of their own block, whether it stands above or below them.

Columns and labels:
[1] = test system: mitochondria and/or endoplasmic reticulum; assay: Subcellular partitioning of dye; format: cell-based; conditions: concentration-dependent
[2] = In vivo early half-life of dye
[3] = test system: vasculature of the heart; assay: Near-infrared fluorescence imaging of heart vasculature with vascular contrast agent after LAD artery ischemia; format: in vivo; conditions: rat, 12.5 nmol injected, 24 hours after LAD artery ischemia; compared with 2,3,5-triphenyltetrazolium chloride staining
Description: The otherwise invisible near-infrared fluorescence from indocyanine green has been pseudo-colored white prior to superimposition on the color video (anatomic) image. […] In pseudo-colored magenta are the red fluorescent microbeads injected during initial ischemia. […] The area of the heart internal to this “ring” of perfusion is termed the “area at risk”, i.e., the area of myocardium that had no blood flow during LAD ligation. […] Finally, the near-infrared fluorescence signal from injection of 25 μg of human annexin V covalently conjugated with IRDye78 (a near-infrared fluorophore) is shown pseudo-colored in green.

[4] = Solubility of dye in blood; conditions: small molecule form
[5] = human annexin V; read-out: affinity (kd) for phosphatidylserine (PS); cited from earlier work
[6] = cited from earlier work
[7] = test system: apoptotic and/or necrotic cells; assay: Near-infrared fluorescence imaging of labeled annexin V in rat heart after LAD artery ischemia/reperfusion; format: in vivo; conditions: 25 μg injected, imaged 24 hours after 20 minutes LAD ligation and reperfusion
Procedure: A branch of the left anterior descending (LAD) artery of the rat heart was ligated with a silk suture. During ligation, the aorta was cross-clamped and 10 μm red fluorescent microbeads were injected into the ventricle. […] After 20 minutes of ligation, the suture was removed, and the heart was permitted to re-perfuse.
The otherwise invisible near-infrared fluorescence from indocyanine green has been pseudo-colored white prior to superimposition on the color video (anatomic) image. […] In pseudo-colored magenta are the red fluorescent microbeads injected during initial ischemia. This area was well perfused during ischemia. The area of the heart internal to this “ring” of perfusion is termed the “area at risk”, i.e., the area of myocardium that had no blood flow during LAD ligation. The area of avascularity/infarct identified with indocyanine green is contained within the area at risk. Finally, the near-infrared fluorescence signal from injection of 25 μg of human annexin V covalently conjugated with IRDye78 (a near-infrared fluorophore) is shown pseudo-colored in green. The green areas, thus, represent apoptotic and/or necrotic cells, i.e., those areas within the area at risk that have actually succumbed to the ischemia. […] Presumably, this area was supplied by either diffusion or smaller collateral vessels fed by the well-perfused area.

Compound: CN1C(=CC=C2CCCC(C=CC3=[N+](C)c4ccccc4C3(C)C)=C2Cl)C(C)(C)c2ccccc21.[O-][Cl+3]([O-])([O-])[O-] [IR-786]
partitioning into organelles [1]: partitions efficiently into mitochondria and/or endoplasmic reticulum

in vivo early half-life [2]: shorter half-life
solubility in blood [4]: somewhat less soluble in blood
Compound: CC1(C)C(/C=C/C=C/C=C/C=C2\N(CCCCS(=O)(=O)O)c3ccc4ccccc4c3C2(C)C)=[N+](CCCCS(=O)(=O)[O-])c2ccc3ccccc3c21 [Indocyanine green, indocyanine green]
vascular staining of ischemic heart [3]: reveals an area of avascularity that corresponds to infarcted tissue

Compound: Human annexin V: human annexin V, molecular weight 36 kd, binds phosphatidylserine; targeting moiety
Kd [5]: 7 nM
dose at which pharmacological effects (anti-coagulant effects) begin ([6]; in vivo): greater than 300 μg protein/kg
pharmacologic or toxic side effects at tracer doses ([6]; tracer doses, e.g. 10 μg protein/kg to 50 μg protein/kg, animal or human subjects): no reported pharmacologic or toxic side effects

Compound: human annexin V covalently conjugated with IRDye78: annexin V reacted under aqueous conditions with the N-hydroxysuccinimide ester of IRDye78, a near-infrared fluorophore
near-infrared fluorescence signal localisation in ischemic heart [7]: several areas of infarcted myocardium within the area at risk
